Tested on: 885512-296-R-J2-PDC complex spheroid viability
Test: Anticancer human tumor 885512-296-R-J2-PDC patient-derived breast carcinoma cell line growth inhibition [GQUAD]
Conditions: for IC50: curve of first compound; for viability, T/C: stronger effect = lower value
In short: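 Tumor cells were grown as complex spheroids with HUVEC endothelial cells and mesenchymal stem cells as stroma. G-quadruplex stabilizers were combined with targeted agents over half-log dilutions from near the clinical Cmax, or from 10 microM.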

[1] = second compound 0.0316 µM, first compound 0.0316 µM
[2] = second compound 0.0316 µM, first compound 0.1 µM
[3] = second compound 0.0316 µM, first compound 0.316 µM
[4] = second compound 0.0316 µM, first compound 1 µM
[5] = second compound 0.0316 µM, first compound 3.16 µM
[6] = second compound 0.0316 µM, first compound 10 µM
[7] = second compound 0.1 µM, first compound 0.0316 µM
[8] = second compound 0.1 µM, first compound 0.1 µM
[9] = second compound 0.1 µM, first compound 0.316 µM
[10] = second compound 0.1 µM, first compound 1 µM
[11] = second compound 0.1 µM, first compound 3.16 µM
[12] = second compound 0.1 µM, first compound 10 µM
[13] = second compound 0.316 µM, first compound 0.0316 µM
[14] = second compound 0.316 µM, first compound 0.1 µM
[15] = second compound 0.316 µM, first compound 0.316 µM
[16] = second compound 0.316 µM, first compound 1 µM
[17] = second compound 0.316 µM, first compound 3.16 µM
[18] = second compound 0.316 µM, first compound 10 µM
[19] = second compound 1 µM, first compound 0.0316 µM
[20] = second compound 1 µM, first compound 0.1 µM
[21] = second compound 1 µM, first compound 0.316 µM
[22] = second compound 1 µM, first compound 1 µM
[23] = second compound 1 µM, first compound 3.16 µM
[24] = second compound 1 µM, first compound 10 µM
[25] = second compound 3.16 µM, first compound 0.0316 µM
[26] = second compound 3.16 µM, first compound 0.1 µM
[27] = second compound 3.16 µM, first compound 0.316 µM
[28] = second compound 3.16 µM, first compound 1 µM
[29] = second compound 3.16 µM, first compound 3.16 µM
[30] = second compound 3.16 µM, first compound 10 µM
[31] = second compound 10 µM, first compound 0.0316 µM
[32] = second compound 10 µM, first compound 0.1 µM
[33] = second compound 10 µM, first compound 0.316 µM
[34] = second compound 10 µM, first compound 1 µM
[35] = second compound 10 µM, first compound 3.16 µM
[36] = second compound 10 µM, first compound 10 µM
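Note: spheroids exposed to the compounds for one week.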
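Throughout, for viability, T/C: percent of tumor spheroid viability relative to DMSO vehicle control wells.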

Compound `Nc1ccn(C2OC(CO)C(O)C2(F)F)c(=O)n1` (stereo not drawn) + Cc1cnc(CNC(=O)c2c(=O)c3ccc(N4CCCN(C)CC4)nc3n3c2sc2ccccc23)cn1 has an IC50 (second compound 0.0316 µM) of less than 31.6 nM, an IC50 (second compound 0.1 µM) of less than 31.6 nM and an IC50 (second compound 0.316 µM) of less than 31.6 nM. The IC50 (second compound 1 µM) was less than 31.6 nM, the IC50 (second compound 3.16 µM) was less than 31.6 nM and the IC50 (second compound 10 µM) was less than 31.6 nM. The viability, T/C [1] was 11.4%, the viability, T/C [2] was 3.66% and the viability, T/C [3] was 4.41%. The viability, T/C [4] was 3.92%, the viability, T/C [5] was 3.56% and the viability, T/C [6] was 4.33%. The viability, T/C [7] was 8.53%, the viability, T/C [8] was 4.24% and the viability, T/C [9] was 3.88%. For the same compound, the viability, T/C [10] was 5.21%, the viability, T/C [11] was 4.05% and the viability, T/C [12] was 3.9%. It also gave a viability, T/C [13] of 8.35%, a viability, T/C [14] of 8.14% and a viability, T/C [15] of 5.18%. For the same compound, the viability, T/C [16] was 2.76%, the viability, T/C [17] was 5.29% and the viability, T/C [18] was 4.05%. For the same compound, the viability, T/C [19] was 9.41%, the viability, T/C [20] was 7.02% and the viability, T/C [21] was 3.55%. For the same compound, the viability, T/C [22] was 3.31%, the viability, T/C [23] was 4.27% and the viability, T/C [24] was 3.59%. The viability, T/C [25] was 4.08%, the viability, T/C [26] was 0.41% and the viability, T/C [27] was 0.15%. It also gave a viability, T/C [28] of 0.1%, a viability, T/C [29] of 0.12% and a viability, T/C [30] of 0.14%. It also gave a viability, T/C [31] of 0.09%, a viability, T/C [32] of 0.15% and a viability, T/C [33] of 0.14%. It also gave a viability, T/C [34] of 0.11%, a viability, T/C [35] of 0.15% and a viability, T/C [36] of 0.16%.

Work on `COc1cccc2c1C(=O)c1c(O)c3c(c(O)c1C2=O)CC(O)(C(=O)CO)CC3OC1CC(N)C(O)C(C)O1` (stereo not drawn) + CN(C)c1ccc(Nc2c3ccc(NC(=O)CCN4CCCC4)cc3nc3cc(NC(=O)CCN4CCCC4)ccc23)cc1 yielded an IC50 (second compound 0.0316 µM) of 69.7 nM, an IC50 (second compound 0.1 µM) of 72.6 nM and an IC50 (second compound 0.316 µM) of 78.8 nM. The IC50 (second compound 1 µM) was 76.6 nM, the IC50 (second compound 3.16 µM) was 70.6 nM and the IC50 (second compound 10 µM) was less than 31.6 nM. The viability, T/C [1] was 83.5%, the viability, T/C [2] was 29.8% and the viability, T/C [3] was 23.5%. For the same compound, the viability, T/C [4] was 6.89%, the viability, T/C [5] was 0.38% and the viability, T/C [6] was 3.01%. The viability, T/C [7] was 90.9%, the viability, T/C [8] was 31.5% and the viability, T/C [9] was 18.5%. It also gave a viability, T/C [10] of 8.24%, a viability, T/C [11] of 1.04% and a viability, T/C [12] of 2.8%. For the same compound, the viability, T/C [13] was 95.3%, the viability, T/C [14] was 35.2% and the viability, T/C [15] was 20.9%. For the same compound, the viability, T/C [16] was 7.15%, the viability, T/C [17] was 1.27% and the viability, T/C [18] was 3.37%. For the same compound, the viability, T/C [19] was 95%, the viability, T/C [20] was 30% and the viability, T/C [21] was 26.1%. The viability, T/C [22] was 8.92%, the viability, T/C [23] was 0.75% and the viability, T/C [24] was 3.6%. For the same compound, the viability, T/C [25] was 81.5%, the viability, T/C [26] was 34.8% and the viability, T/C [27] was 18.1%. For the same compound, the viability, T/C [28] was 8.3%, the viability, T/C [29] was 3.01% and the viability, T/C [30] was 2.07%. For the same compound, the viability, T/C [31] was 26.5%, the viability, T/C [32] was 20% and the viability, T/C [33] was 9.35%. The viability, T/C [34] was 5.9%, the viability, T/C [35] was 0.9% and the viability, T/C [36] was 1.52%.

In the case of `O=C(c1cc(Cc2n[nH]c(=O)c3ccccc23)ccc1F)N1CCN(C(=O)C2CC2)CC1` + CN(C)c1ccc(Nc2c3ccc(NC(=O)CCN4CCCC4)cc3nc3cc(NC(=O)CCN4CCCC4)ccc23)cc1, the IC50 (second compound 0.0316 µM) is reported as 7620 nM, the IC50 (second compound 0.1 µM) is reported as 7900 nM and the IC50 (second compound 0.316 µM) is reported as 7330 nM. It also gave an IC50 (second compound 1 µM) of 7310 nM, an IC50 (second compound 3.16 µM) of 5340 nM and an IC50 (second compound 10 µM) of less than 31.6 nM. The viability, T/C [1] was 105%, the viability, T/C [2] was 103% and the viability, T/C [3] was 132%. For the same compound, the viability, T/C [4] was 139%, the viability, T/C [5] was 117% and the viability, T/C [6] was 29.2%. The viability, T/C [7] was 102%, the viability, T/C [8] was 94.9% and the viability, T/C [9] was 119%. The viability, T/C [10] was 145%, the viability, T/C [11] was 120% and the viability, T/C [12] was 33%. For the same compound, the viability, T/C [13] was 93.7%, the viability, T/C [14] was 110% and the viability, T/C [15] was 118%. It also gave a viability, T/C [16] of 131%, a viability, T/C [17] of 123% and a viability, T/C [18] of 25.7%. The viability, T/C [19] was 85.2%, the viability, T/C [20] was 102% and the viability, T/C [21] was 116%. For the same compound, the viability, T/C [22] was 152%, the viability, T/C [23] was 105% and the viability, T/C [24] was 29.1%. For the same compound, the viability, T/C [25] was 95%, the viability, T/C [26] was 107% and the viability, T/C [27] was 125%. It also gave a viability, T/C [28] of 107%, a viability, T/C [29] of 67.8% and a viability, T/C [30] of 28.7%. The viability, T/C [31] was 20.7%, the viability, T/C [32] was 23.3% and the viability, T/C [33] was 20.1%. It also gave a viability, T/C [34] of 19.2%, a viability, T/C [35] of 20.8% and a viability, T/C [36] of 15.8%.

Compound `COc1ncnc(C2CC2)c1-c1ncc2cnn(Cc3ccc(-c4nc(C(F)(F)F)cn4C(C)C)cc3)c2n1` + CN(C)c1ccc(Nc2c3ccc(NC(=O)CCN4CCCC4)cc3nc3cc(NC(=O)CCN4CCCC4)ccc23)cc1 has an IC50 (second compound 0.0316 µM) greater than 10000 nM, an IC50 (second compound 0.1 µM) greater than 10000 nM and an IC50 (second compound 0.316 µM) greater than 10000 nM. The IC50 (second compound 1 µM) was greater than 10000 nM, the IC50 (second compound 3.16 µM) was greater than 10000 nM and the IC50 (second compound 10 µM) was less than 31.6 nM. The viability, T/C [1] was 107%, the viability, T/C [2] was 102% and the viability, T/C [3] was 93.3%. For the same compound, the viability, T/C [4] was 104%, the viability, T/C [5] was 100% and the viability, T/C [6] was 92.3%. The viability, T/C [7] was 103%, the viability, T/C [8] was 103% and the viability, T/C [9] was 97.3%. The viability, T/C [10] was 93.6%, the viability, T/C [11] was 92.5% and the viability, T/C [12] was 81.4%. It also gave a viability, T/C [13] of 105%, a viability, T/C [14] of 108% and a viability, T/C [15] of 103%. The viability, T/C [16] was 103%, the viability, T/C [17] was 104% and the viability, T/C [18] was 85.8%. The viability, T/C [19] was 95%, the viability, T/C [20] was 97.2% and the viability, T/C [21] was 103%. The viability, T/C [22] was 91%, the viability, T/C [23] was 101% and the viability, T/C [24] was 87.4%. For the same compound, the viability, T/C [25] was 99.4%, the viability, T/C [26] was 107% and the viability, T/C [27] was 106%. For the same compound, the viability, T/C [28] was 83.9%, the viability, T/C [29] was 81.3% and the viability, T/C [30] was 50.3%. It also gave a viability, T/C [31] of 28.5%, a viability, T/C [32] of 18.7% and a viability, T/C [33] of 16.4%. For the same compound, the viability, T/C [34] was 15.3%, the viability, T/C [35] was 11.9% and the viability, T/C [36] was 5.91%.

From PubChem BioAssay AID2060490 (Molecular Pharmacology Branch, DTP, NCI, 2025)
